For orientation: IC50 means the point on the concentration scale where inhibition reaches its midpoint. A higher IC50 goes with a need for much substance.

We go through 4 compounds from US10669310B2, “Peptide for cancer treatment and pharmaceutical composition containing same” (TOKUSHIMA UNIVERSITY, priority 2016, dated 2020).

For one experiment, the system named is MCF-7 cells. The experiment is classed as cell-based, human. The method, then: Human breast cancer cell line MCF-7 and mammary epithelial cell line MCF-10A were purchased from American Type Culture Collection (ATCC, Manassas, Va., USA). Breast cancer cell line KPL-3C (J. Kurebayashi, et al., Br. J. Cancer 74, 200-207 (1996)) was kindly provided by Dr. Junichi Kurebayashi (Kawasaki Medical School). All cell lines were monolayer cultured in an appropriate medium supplemented with 10% FBS. The cells were maintained at 37° C. under humidified atmosphere containing 5% CO2.
In each experiment, the respective cells were seeded in a 48-well plate (2×10^4 cells/mL), a 6-well plate (3×10^5 cells/mL), or a 10-cm dish (2×10^6 cells/10 mL). MCF-7 cells were seeded in MEM (Thermo Fisher Scientific) supplemented with 10% FBS (Nichirei Biosciences Inc., Tokyo, Japan), 1% Antibiotic/Antimycotic solution (Thermo Fisher Scientific, Waltham, Mass., USA), 0.1 mM NEAA (Thermo Fisher Scientific), 1 mM sodium pyruvate (Thermo Fisher Scientific), and 10 μg/mL insulin (Sigma, St. Louis, Mo., USA). KPL-3C cells were seeded in RPMI (Thermo Fisher Scientific) supplemented with 10% FBS and 1% Antibiotic/Antimycotic solution. MCF-10A cells were seeded in MEBM (Lonza) supplemented with a Single Quots kit (BPE, hydrocortisone, hEGF, insulin, gentamycin/amphoterin-B) (Lonza, Walkersville, Md., USA) and 100 ng/mL cholera toxin. For 17β-estradiol (E2) (Sigma) stimulation, the media for MCF-7 and KPL-3C were changed to phenol red-free DMEM/F12 (Thermo Fisher Scientific) supplemented with 10% FBS, 1% Antibiotic/Antimycotic solution, 0.1 mM NEAA, 1 mM sodium pyruvate, and 10 μg/mL insulin on the day after seeding. Twenty-four hours later, the cells were treated with 10 nM E2 and a peptide (for example, 11R-ERAP or a stapled ERAP), or with 10 nM E2 alone.
When carrying out treatment with tamoxifen (Sigma) or fulvestrant (LKT laboratories, St. Paul, Minn., USA), cells were treated with 10 nM tamoxifen or 2 μM fulvestrant simultaneously with the above-mentioned treatment with E2 and a peptide or with E2 alone.
Cell growth assays on MCF-7, KPL-3C, and MCF-10A were carried out as described previously using a Cell Counting Kit-8 (CCK-8) (Dojindo, Kumamoto, Japan) (T. Yoshimaru, et al., Nat. Commun. 4, 2443 (2013)). The data are shown by mean±SE of three independent experiments.

The target of another experiment is T1, BIG3-PHB2 interaction (Homo sapiens, UniProt Q99623).
T1 construct: complex formation between the endogenous BIG3 and PHB2 in ERα-positive breast cancer cell line MCF-7; endogenous in cells; host or cells: MCF-7
As to the kind of experiment: Co-immunoprecipitation with anti-BIG3 antibody in MCF-7 cells. The experiment is classed as cell-based. To be noted: MCF-7, 1 μM, 24 hours after treatment. The method, then:
Immunoblot analyses were performed as described previously (T. Yoshimaru, et al., Nat. Commun. 4, 2443 (2013)). After performing SDS-PAGE, the membranes blotted with proteins were blocked with 4% BlockAce solution (Dainippon Pharmaceutical, Osaka, Japan) for three hours and then incubated with antibodies against the following proteins: BIG3 (1:1,000) (T. Yoshimaru, et al., Nat. Commun. 4, 2443 (2013)); PHB2 (1:1,000) (Abeam, Cambridge, UK); Akt, phosphorylated Akt (S473) (587F11, 1:1,000); p44/42 MAPK, phosphorylated p44/42 MAPK (T202/Y204) (1:1,000); α/β-tubulin (1:1,000) (Cell Signaling Technology, Danvers, Mass., USA); and LMNB1 (1:100) (Sigma). After incubation with an HRP-labeled secondary antibody (anti-mouse IgG-HRP, 1:5,000; anti-rat IgG-HRP; 1:5,000; or anti-rabbit IgG-HRP, 1:1,000) (Santa Cruz Biotechnology, Dallas, Tex., USA) for one hour, the blots were developed with an Enhanced Chemiluminescence (ECL) system (GE Healthcare, Buckinghamshire, UK) and scanned using an Image Reader LAS-3000 mini (Fujifilm, Tokyo, Japan). All the experiments were performed at least in triplicate.
Immunoprecipitation analysis was performed as described previously (T. Yoshimaru, et al., Nat. Commun. 4, 2443 (2013)). Cell lysates were pre-cleared with normal IgG and rec-Protein G Sepharose 4B (Thermo Fisher Scientific) at 4° C. for three hours. Then, the supernatants were incubated with 5 μg of an antibody against BIG3 or an antibody against PHB2 at 4° C. for twelve hours. Next, the antigen-antibody complexes were precipitated using rec-Protein G Sepharose 4B at 4° C. for one hour. The immunoprecipitated protein complexes were washed several times with a lysis buffer. Then, SDS-PAGE and immunoblot analyses were carried out as described above.

Like-named read-outs stand apart in the source and are kept apart here. *1 amine or outer side, *2 acyl side, *3 side chain or, on linkers, in order; H or OH if unused. Where a SMILES comes first, the peptide text is derived from it. Bridges are numbered along the chain shown (N, C = ends). [ ]: non-standard residue; d: D form. NH(CH2)4NH = C(CCN[*:2])CN[*:1]

T1 sequence (Q99623 2-299 limits assumed): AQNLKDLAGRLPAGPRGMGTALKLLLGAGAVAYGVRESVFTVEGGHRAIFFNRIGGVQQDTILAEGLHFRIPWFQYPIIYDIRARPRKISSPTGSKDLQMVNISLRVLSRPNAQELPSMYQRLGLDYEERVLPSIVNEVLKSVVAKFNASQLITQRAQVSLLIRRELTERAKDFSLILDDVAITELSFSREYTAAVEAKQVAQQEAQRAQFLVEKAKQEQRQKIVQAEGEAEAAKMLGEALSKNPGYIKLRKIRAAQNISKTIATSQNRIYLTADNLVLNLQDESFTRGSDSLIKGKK

As for `CSCC[C@@H](NC(=O)[C@H]1CCC(=O)NCCCCNC(=O)CC[C@@H](NC(C)=O)C(=O)N[C@H](CC(C)C)C(=O)N[C@H](CC(=O)O)C(=O)N[C@H](CO)C(=O)N1)C(=O)N[C@H](CCC(N)=O)C(N)=O` [shRI stapled ERAP No. 12] (Ac-[dE][dL][dD][dS][dE][dM][dQ]-NH2; linker 1-5 via NH(CH2)4NH; N-terminus and C-terminus assumed), in the experiment on MCF-7 cells (1 μM, E2-dependent growth of MCF-7), the “duration of significant cell growth inhibitory effects” value is “seven”. The concentration for half-maximal inhibition (IC50) in the experiment on MCF-7 cells (96 h) amounted to 0.53 µM. The “inhibition of endogenous BIG3-PHB2 complex formation” value at BIG3-PHB2 interaction is listed as “inhibited endogenous BIG3-PHB2 complex formation”.

`CSCC[C@H](NC(=O)[C@@H](N)CCC(N)=O)C(=O)N[C@@H](CC(C)C)C(=O)N[C@@H](CO)C(=O)N[C@@H](CC(=O)O)C(=O)N[C@@H](CC(C)C)C(=O)N[C@H](C(=O)N[C@@H](CC(C)C)C(=O)N[C@@H](CCC(N)=O)C(=O)N[C@@H](CC(C)C)C(=O)N[C@@H](CCCNC(=N)N)C(=O)N[C@@H](CCC(N)=O)C(=O)N[C@@H](CCCNC(=N)N)C(=O)N[C@@H](CCCNC(=N)N)C(=O)N[C@@H](CCCNC(=N)N)C(=O)N[C@@H](CCCNC(=N)N)C(=O)N[C@@H](CCCNC(=N)N)C(=O)N[C@@H](CCCNC(=N)N)C(=O)N[C@@H](CCCNC(=N)N)C(=O)N[C@@H](CCCNC(=N)N)C(=O)N[C@@H](CCCNC(=N)N)C(=O)O)[C@@H](C)O` [QMLSDLTLQLRQR-8R] (H-QMLSDLTLQLRQRRRRRRRRR-OH; N-terminus and C-terminus assumed) yielded a half-inhibitory concentration (IC50) with MCF-7 cells of 7.78 µM.

Consider `CSCC[C@H](NC(=O)[C@@H](N)CCC(N)=O)C(=O)N[C@@H](CC(C)C)C(=O)N[C@@H](CO)C(=O)N[C@@H](CC(=O)O)C(=O)N[C@@H](CC(C)C)C(=O)N[C@H](C(=O)N[C@@H](CC(C)C)C(=O)N[C@@H](CCC(N)=O)C(=O)N[C@@H](CC(C)C)C(=O)N[C@@H](CCCNC(=N)N)C(=O)N[C@@H](CCCNC(=N)N)C(=O)N[C@@H](CCCNC(=N)N)C(=O)N[C@@H](CCCNC(=N)N)C(=O)N[C@@H](CCCNC(=N)N)C(=O)N[C@@H](CCCNC(=N)N)C(=O)N[C@@H](CCCNC(=N)N)C(=O)N[C@@H](CCCNC(=N)N)C(=O)O)[C@@H](C)O` [QMLSDLTLQL-8R] (H-QMLSDLTLQLRRRRRRRR-OH; N-terminus and C-terminus assumed), for which, in the experiment with MCF-7 cells, it took 7.98 µM to reach half-maximal inhibition (IC50).

For the compound “QMLSDLTLQLRQR (PHB2-binding peptide derived from BIG3) [ERAP, reference compound]”, the “effect on E2-dependent MCF-7 cell growth” value in the experiment on MCF-7 cells was “did not show effects”.
